The values below come from patent US6638973B2, “Taxane formulations” (FSU Research Foundation, Inc., priority 2000, dated 2003).

One experiment has as its system HCT116 cells. Briefly: In vitro cytotoxicity measured by the cell colony formation assay. The conditions noted are these: HCT116 cells, 72 h drug incubation, colonies counted after 7 days; ID50 = drug concentration producing 50% inhibition of colony formation; read-out: IN VITRO ID 50 (nm) HCT116. Type of experiment: cell-based. An outline of the steps: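 Colony-forming survival was scored 7 days after a 72 h, 37 °C compound exposure followed by washout into fresh medium.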
Turning to `CC(=O)O[C@@]12CO[C@@H]1C[C@H](OC(=O)NC1CCCCC1)[C@@]1(C)C(=O)[C@H](O)C3=C(C)[C@@H](OC(=O)[C@H](O)[C@@H](NC(=O)OC(C)(C)C)c4ccco4)C[C@@](O)([C@@H](OC(=O)c4ccccc4)C12)C3(C)C` (stereo partly shown) [Compound 5373], the IC50 was less than 10 nM.

The experiment is the same for the next values; noted with them: HCT116 cells, 72 h incubation with drug, colonies counted after 7 days; ID50 = drug concentration producing 50% inhibition of colony formation; read-out: IN VITRO ID 50 (nm) HCT116.
Turning to `COC(=O)O[C@H]1C(=O)[C@@]2(C)C([C@H](OC(=O)c3ccccc3)[C@]3(O)C[C@H](OC(=O)[C@H](O)[C@@H](NC(=O)OC(C)(C)C)c4ccccn4)C(C)=C1C3(C)C)[C@]1(OC(C)=O)CO[C@@H]1C[C@@H]2O` (stereo partly shown) [Compound 2002], the IC50 is less than 1 nM.
Still for that read-out and setting: for `CCOC(=O)O[C@H]1C(=O)[C@@]2(C)C([C@H](OC(=O)c3ccccc3)[C@]3(O)C[C@H](OC(=O)[C@H](O)[C@@H](NC(=O)OC(C)C)c4cccs4)C(C)=C1C3(C)C)[C@]1(OC(C)=O)CO[C@@H]1C[C@@H]2O` (stereo partly shown) [Compound 2999] the value was less than 1 nM.
The same measure, in the same setting: for `COC(=O)O[C@H]1C[C@H]2OC[C@@]2(OC(C)=O)C2[C@H](OC(=O)c3ccccc3)[C@]3(O)C[C@H](OC(=O)[C@H](O)[C@@H](NC(=O)OCC(C)C)C4CC4)C(C)=C([C@@H](O)C(=O)[C@@]21C)C3(C)C` (stereo partly shown) [Compound 5211] the value was less than 10 nM; for `COC(=O)O[C@H]1C(=O)[C@@]2(C)C([C@H](OC(=O)c3ccccc3)[C@]3(O)C[C@H](OC(=O)[C@H](O)[C@@H](NC(=O)OC(C)(C)C)c4ccco4)C(C)=C1C3(C)C)[C@]1(OC(C)=O)CO[C@@H]1C[C@@H]2O` (stereo partly shown) [Compound 2666], less than 1 nM; for `CCOC(=O)O[C@H]1C(=O)[C@@]2(C)C([C@H](OC(=O)c3ccccc3)[C@]3(O)C[C@H](OC(=O)[C@H](O)[C@H](C=C(C)C)NC(=O)OC(C)(C)C)C(C)=C1C3(C)C)[C@]1(OC(C)=O)CO[C@@H]1C[C@@H]2O` (stereo partly shown) [Compound 1781], less than 1 nM.
On the same count and under the same terms, under `CCOC(=O)O[C@H]1C(=O)[C@@]2(C)C([C@H](OC(=O)c3ccccc3)[C@]3(O)C[C@H](OC(=O)[C@H](O)[C@@H](NC(=O)c4ccco4)c4cccs4)C(C)=C1C3(C)C)[C@]1(OC(C)=O)CO[C@@H]1C[C@@H]2O` (stereo partly shown) [Compound 3011] stands less than 1 nM.

Staying with this experiment, now noted: HCT116 cells, colony formation, 72 h incubation with drug, colonies counted after 7 days; ID50 = drug concentration producing 50% inhibition of colony formation; read-out: IN VITRO ID 50 (nm) HCT116.
`CCNC(=O)O[C@H]1C(=O)[C@@]2(C)C([C@H](OC(=O)c3ccccc3)[C@]3(O)C[C@H](OC(=O)[C@H](O)[C@@H](NC(=O)OC(C)(C)C)C4CCC4)C(C)=C1C3(C)C)[C@]1(OC(C)=O)CO[C@@H]1C[C@@H]2O` (stereo partly shown) [Compound 2733]: the IC50 was less than 10 nM.
For `C/C=C/C(=O)N[C@@H](c1ccco1)[C@@H](O)C(=O)O[C@H]1C[C@@]2(O)[C@@H](OC(=O)c3ccccc3)C3[C@](C)(C(=O)[C@H](OC(=O)NCC)C(=C1C)C2(C)C)[C@@H](O)C[C@H]1OC[C@@]31OC(C)=O` (stereo partly shown) [Compound 6072], the IC50 was less than 1 nM.

The experiment is the same for the next values; noted with them: HCT116 colony formation; 72 h drug incubation, colonies counted after 7 days; Example 5, C-7 ester/C-10 hydroxy taxanes; read-out: IN VITRO ID 50 (nm) HCT116.
Take `CCCC(=O)O[C@H]1C[C@H]2OC[C@@]2(OC(C)=O)C2[C@H](OC(=O)c3ccccc3)[C@]3(O)C[C@H](OC(=O)[C@H](O)[C@@H](NC(=O)OCC(C)C)C4CC4)C(C)=C([C@@H](O)C(=O)[C@@]21C)C3(C)C` (stereo partly shown) [Compound 5202]: the IC50 is less than 10 nM.
Still for that read-out and setting: for `CCCC(=O)O[C@H]1C[C@H]2OC[C@@]2(OC(C)=O)C2[C@H](OC(=O)c3ccccc3)[C@]3(O)C[C@H](OC(=O)[C@H](O)[C@@H](NC(=O)OC(C)(C)C)c4ccco4)C(C)=C([C@@H](O)C(=O)[C@@]21C)C3(C)C` (stereo partly shown) [Compound 4499] the value was less than 1 nM.
The same measure, in the same setting: under `CCC(=O)OC1CC2OCC2(OC(C)=O)C2C(OC(=O)c3ccccc3)C3(O)CC(OC(=O)C(O)C(NC(=O)OC(C)(C)C)c4ccco4)C(C)=C(C(O)C(=O)C12C)C3(C)C` (stereo not shown) [Compound 1393, 3′-Desphenyl-3′-(2-furyl)-7-propionyl taxotere] stands less than 1 nM.
The same measure, in the same setting: under `CCC(=O)O[C@H]1C[C@H]2OC[C@@]2(OC(C)=O)C2[C@H](OC(=O)c3ccccc3)[C@]3(O)C[C@H](OC(=O)[C@H](O)[C@@H](NC(=O)OC(C)(C)C)c4cccnc4)C(C)=C([C@@H](O)C(=O)[C@@]21C)C3(C)C` (stereo partly shown) [Compound 1372] stands 26.1 nM.
With `CCC(=O)O[C@H]1C[C@H]2OC[C@@]2(OC(C)=O)C2[C@H](OC(=O)c3ccccc3)[C@]3(O)C[C@H](OC(=O)[C@H](O)[C@@H](NC(=O)OC(C)(C)C)c4ccccn4)C(C)=C([C@@H](O)C(=O)[C@@]21C)C3(C)C` (stereo partly shown) [Compound 1364], the IC50 is less than 10 nM.
Consider `CCCC(=O)O[C@H]1C[C@H]2OC[C@@]2(OC(C)=O)C2[C@H](OC(=O)c3ccccc3)[C@]3(O)C[C@H](OC(=O)[C@H](O)[C@H](C=C(C)C)NC(=O)OC(C)(C)C)C(C)=C([C@@H](O)C(=O)[C@@]21C)C3(C)C` (stereo partly shown) [Compound 4406], for which the IC50 was less than 1 nM.

The same experiment, now with this note: HCT116 colony formation; 72 h drug incubation, colonies counted after 7 days; Example 10, C-10 ester/C-7 hydroxy taxanes; read-out: IN VITRO ID 50 (nm) HCT116.
On to `CC(=O)OC12COC1CC(O)C1(C)C(=O)C(OC(=O)C(C)C)C3=C(C)C(OC(=O)C(O)C(NC(=O)OC(C)(C)C)c4ccccn4)CC(O)(C(OC(=O)c4ccccc4)C21)C3(C)C` (stereo not shown) [Compound 2238], for which the IC50 was less than 1 nM.
The same measure, in the same setting: for `CCCC(=O)OC1C(=O)C2(C)C(O)CC3OCC3(OC(C)=O)C2C(OC(=O)c2ccccc2)C2(O)CC(OC(=O)C(O)C(NC(=O)OC(C)(C)C)C3CC3)C(C)=C1C2(C)C` (stereo not shown) [Compound 1020] the value was less than 1 nM; for `CCC(=O)O[C@H]1C(=O)[C@@]2(C)C([C@H](OC(=O)c3ccccc3)[C@]3(O)C[C@H](OC(=O)[C@H](O)[C@@H](NC(=O)OC(C)(C)C)c4ccccn4)C(C)=C1C3(C)C)[C@]1(OC(C)=O)CO[C@@H]1C[C@@H]2O` (stereo partly shown) [Compound 0503], less than 1 nM.
The same measure, in the same setting: under `CCCC(=O)N[C@@H](c1ccco1)[C@@H](O)C(=O)O[C@H]1C[C@@]2(O)[C@@H](OC(=O)c3ccccc3)C3[C@](C)(C(=O)[C@H](OC(=O)C4CC4)C(=C1C)C2(C)C)[C@@H](O)C[C@H]1OC[C@@]31OC(C)=O` (stereo partly shown) [Compound 4062] stands less than 1 nM.
The same measure, in the same setting: for `C/C=C/C(=O)O[C@H]1C(=O)[C@@]2(C)C([C@H](OC(=O)c3ccccc3)[C@]3(O)C[C@H](OC(=O)[C@H](O)[C@@H](NC(=O)OC(C)(C)C)c4ccsc4)C(C)=C1C3(C)C)[C@]1(OC(C)=O)CO[C@@H]1C[C@@H]2O` (stereo partly shown) [Compound 2408] the value was less than 1 nM.
Take `CC(=O)O[C@@]12CO[C@@H]1C[C@H](O)[C@@]1(C)C(=O)[C@H](OC(=O)C3CC3)C3=C(C)[C@@H](OC(=O)[C@H](O)[C@@H](NC(=O)c4ccco4)c4ccco4)C[C@@](O)([C@@H](OC(=O)c4ccccc4)C12)C3(C)C` (stereo partly shown) [Compound 3866]: the IC50 was less than 1 nM.
The same measure, in the same setting: under `C/C=C/C(=O)N[C@@H](c1ccoc1)[C@@H](O)C(=O)O[C@H]1C[C@@]2(O)[C@@H](OC(=O)c3ccccc3)C3[C@](C)(C(=O)[C@H](OC(=O)C4CC4)C(=C1C)C2(C)C)[C@@H](O)C[C@H]1OC[C@@]31OC(C)=O` (stereo partly shown) [Compound 4944] stands less than 1 nM; under `CCC(=O)O[C@H]1C(=O)[C@@]2(C)C([C@H](OC(=O)c3ccccc3)[C@]3(O)C[C@H](OC(=O)[C@H](O)[C@@H](NC(=O)OCC(C)C)c4cccs4)C(C)=C1C3(C)C)[C@]1(OC(C)=O)CO[C@@H]1C[C@@H]2O` (stereo partly shown) [Compound 3163], less than 1 nM.
In the case of `CC(=O)OC12COC1CC(O)C1(C)C(=O)C(OC(=O)c3ccco3)C3=C(C)C(OC(=O)C(O)C(NC(=O)OC(C)(C)C)c4ccccn4)CC(O)(C(OC(=O)c4ccccc4)C21)C3(C)C` (stereo not shown) [Compound 2111], the IC50 is less than 1 nM.
`CC(=O)OC12COC1CC(O)C1(C)C(=O)C(OC(=O)c3cccs3)C3=C(C)C(OC(=O)C(O)C(NC(=O)OC(C)(C)C)c4ccc([N+](=O)[O-])cc4)CC(O)(C(OC(=O)c4ccccc4)C21)C3(C)C` (stereo not shown) [Compound 1911]: the IC50 was less than 10 nM.
The same measure, in the same setting: under `CC(=O)O[C@@]12CO[C@@H]1C[C@H](O)[C@@]1(C)C(=O)[C@H](OC(=O)C=C(C)C)C3=C(C)[C@@H](OC(=O)[C@H](O)[C@@H](NC(=O)OC(C)(C)C)c4ccncc4)C[C@@](O)([C@@H](OC(=O)c4ccccc4)C12)C3(C)C` (stereo partly shown) [Compound 2472] stands less than 1 nM; under `C/C=C/C(=O)N[C@@H](c1ccoc1)[C@@H](O)C(=O)O[C@H]1C[C@@]2(O)[C@@H](OC(=O)c3ccccc3)C3[C@](C)(C(=O)[C@H](OC(=O)CCC)C(=C1C)C2(C)C)[C@@H](O)C[C@H]1OC[C@@]31OC(C)=O` (stereo partly shown) [Compound 4919], less than 1 nM.
Still for that read-out and setting: under `CCC(=O)O[C@H]1C(=O)[C@@]2(C)C([C@H](OC(=O)c3ccccc3)[C@]3(O)C[C@H](OC(=O)[C@H](O)[C@@H](NC(=O)OCC(C)C)c4ccsc4)C(C)=C1C3(C)C)[C@]1(OC(C)=O)CO[C@@H]1C[C@@H]2O` (stereo partly shown) [Compound 4711] stands less than 10 nM; under `CCC(=O)O[C@H]1C(=O)[C@@]2(C)C([C@H](OC(=O)c3ccccc3)[C@]3(O)C[C@H](OC(=O)[C@H](O)[C@@H](NC(=O)OC(C)(C)C)C(C)C)C(C)=C1C3(C)C)[C@]1(OC(C)=O)CO[C@@H]1C[C@@H]2O` (stereo partly shown) [Compound 0583], less than 10 nM.

Still in this experiment, the particulars now being: HCT116 colony formation; 72 h drug incubation, colonies counted after 7 days; Example 15, C-7 substituted acetate/C-10 hydroxy taxanes; read-out: IN VITRO ID 50 (nm) HCT116.
On to `CC(=O)O[C@@]12CO[C@@H]1C[C@H](OC(=O)COc1ccccc1)[C@@]1(C)C(=O)[C@H](O)C3=C(C)[C@@H](OC(=O)[C@H](O)[C@@H](NC(=O)OC(C)(C)C)c4ccco4)C[C@@](O)([C@@H](OC(=O)c4ccccc4)C12)C3(C)C` (stereo partly shown) [Compound 5616], for which the IC50 is less than 1 nM.

Staying with this experiment, now noted: Homo sapiens, HCT-116; HCT116 colony formation; 72 h drug incubation, colonies counted after 7 days; Example 5, C-7 ester/C-10 hydroxy taxanes; read-out: IN VITRO ID 50 (nm) HCT116.
Turning to `CC(=O)O[C@H]1C(=O)[C@@]2(C)[C@H]([C@H](OC(=O)c3ccccc3)[C@]3(O)C[C@H](OC(=O)[C@H](O)[C@@H](NC(=O)c4ccccc4)c4ccccc4)C(C)=C1C3(C)C)[C@]1(OC(C)=O)CO[C@@H]1C[C@@H]2O` [taxol, paclitaxel, reference compound], the IC50 came to 2.1 nM.
